Values belong to the compound of their own block, whether it stands above or below them.
Experiments:
FPTase [1] = biological target: T1, FPTase (Homo sapiens, UniProt P49354+P49356); experiment: in vitro FTase Inhibition Assay, K-Ras used as substrate for farnesylation; assay type: biochemical; conditions: Table I
FPTase [2] = biological target: T1, FPTase; experiment: in vitro FTase Inhibition Assay, H-Ras used as substrate for farnesylation; assay type: biochemical; conditions: Table I, read-out: IC50 H-Ras*
[3] = test system: K-ras dependent human colon carcinoma (LoVo); experiment: in vivo effects against K-ras dependent human colon carcinoma (LoVo); conditions: for S/T = No. Survivors/No.Treated: Day +35 post tumor cell implantation
Text: […] For the compound of example 114, when tested against a K-ras dependent human colon carcinoma (LoVo), the following results were obtained (Table III):

[4] = 50 mg/kg per dose IP, BID days 1 through 20, control 0.5% Methocel 0.4% Tween 80
[5] = 75 mg/kg per dose IP, BID days 1 through 20, control 0.5% Methocel 0.4% Tween 80
[6] = 100 mg/kg per dose IP, once a day on days 1 through 20, control 0.5% Methocel 0.4% Tween 80
[7] = 100 mg/kg per dose PO, BID days 1 through 20, control 0.5% Methocel 0.4% Tween 80
[8] = 100 mg/kg per dose PO, BID days 1 through 20, control 20% BCD in 1.1N HCl
[9] = 75* mg/kg per dose IP, BID days 1 through 20, prepared in 2% Tween 80 in D5W, control 2% Tween in D5W
[10] = 1 mg/kg per dose IP, days 5, 9 and 13, control 0.5% Methocel 0.4% Tween 80

- melting point: 54 to 56 °C
Structure (SMILES): COc1ccc(SC2(CCCCCCCCCC#Cc3ccc(Cl)cc3)SC(=O)NC2=O)cc1 (stereo not drawn) [Example 94, 5-[11-(4-Chlorophenyl)undec-10-ynyl]-5-(4-methoxy-phenylsulfanyl)-thiazolidine-2,4-dione]

- melting point: 145 to 148 °C
Structure (SMILES): COc1ccc(S(=O)(=O)C2(CCCCC#Cc3ccc(Cl)cc3)SC(=O)NC2=O)cc1 (stereo not drawn) [Example 98, 5-[6-(4-Chlorophenyl)hex-5-ynyl]-5-(4-methoxyphenylsulfonyl)-thiazolidine-2,4-dione]

- IC50 (FPTase [1]): 110 to 1000 nM
- melting point: 133 to 135 °C
- IC50 (FPTase [2]): 10 to 30 nM
Structure (SMILES): COc1ccc(S(=O)(=O)C2(CCCC#Cc3ccccc3Cl)SC(=O)NC2=O)cc1 (stereo not drawn) [Example 101, 5-[5-(2-Chlorophenyl)pent-4-ynyl]-5-(4-methoxybenzenesulfonyl)thiazolidine-2,4-dione]

- IC50 (FPTase [1]): 1400 nM
- melting point: 134 to 136 °C
- IC50 (FPTase [2]): 30 to 32 nM
Structure (SMILES): COc1ccc(S(=O)(=O)C2(CCCC#Cc3cccc(Cl)c3)SC(=O)NC2=O)cc1 (stereo not drawn) [Example 102, 5-[5-(3-Chlorophenyl)pent-4-ynyl]-5-(4-methoxybenzenesulfonyl)thiazolidine-2,4-dione]

- IC50 (FPTase [1]): 900 to 10000 nM
- melting point: 176 to 177 °C
- IC50 (FPTase [2]): 30 to 50 nM
Structure (SMILES): Cc1ccc(S(=O)(=O)C2(CCCC#Cc3ccc(Cl)cc3)SC(=O)NC2=O)cc1 (stereo not drawn) [Example 103, 5-[5-(4-Chlorophenyl)pent-4-ynyl]-5-(p-tolylsulfonyl)thiazolidine-2,4-dione]

- IC50 (FPTase [1]): 230 to 900 nM
- melting point: 157 to 159 °C
- IC50 (FPTase [2]): 30 to 54 nM
Structure (SMILES): O=C1NC(=O)C(CCCC#Cc2ccc(Cl)cc2)(S(=O)(=O)c2ccc(I)cc2)S1 (stereo not drawn) [Example 104, 5-[5-(4-Chlorophenyl)pent-4-ynyl]-5-(4-iodobenzenesulfonyl)thiazolidine-2,4-dione]

- IC50 (FPTase [1]): 1300 to 1700 nM
- melting point: 193 to 194 °C
- IC50 (FPTase [2]): 230 to 250 nM
Structure (SMILES): O=C1NC(=O)C(CCCC#Cc2ccc(Cl)cc2)(S(=O)(=O)c2ccc(Oc3ccccc3)cc2)S1 (stereo not drawn) [Example 106, 5-[5-(4-Chlorophenyl)pent-4-ynyl]-5-(4-phenoxybenzenesulfonyl)-thiazolidine-2,4-dione]

- IC50 (FPTase [1]): 620 to 700 nM
- melting point: 150 to 153 °C
- IC50 (FPTase [2]): 180 to 200 nM
Structure (SMILES): O=C1NC(=O)C(CCCC#Cc2ccc(Cl)cc2)(S(=O)(=O)c2ccc3ccccc3c2)S1 (stereo not drawn) [Example 107, 5-[5-(4-Chlorophenyl)pent-4-ynyl]-5-(naphthalene-2-sulfonyl)thiazolidine-2,4-dione]

- IC50 (FPTase [1]): ≥ 9000 nM
- melting point: 232 °C (dec.)
- IC50 (FPTase [2]): 130 to 180 nM
Structure (SMILES): CC(=O)Nc1ccc(S(=O)(=O)C2(CCCC#Cc3ccc(Cl)cc3)SC(=O)NC2=O)cc1 (stereo not drawn) [Example 108, N-(4-{5-[5-(4-Chlorophenyl)pent-4-ynyl]-2,4-dioxothiazolidine-5-sulfonyl}phenyl)acetamide]

Structure (SMILES): COc1ccc(S(=O)(=O)C2(CCCC#Cc3cc(Cl)ccc3Cl)SC(=O)NC2=O)cc1 (stereo not drawn) [Example 114, 5-[5-(2,5-Dichloro-phenyl)pent-4-ynyl]-5-(4-methoxy-benzenesulfonyl)-thiazolidine-2,4-dione]
- % T/C, Day8 [3, 4]: 74%
- % T/C, Day 15 [3, 4]: 47%
- % T/C, Day 22 [3, 4]: 43%
- % T/C, Day 29 [3, 4]: 59%
- % T/C, Day 36 [3, 4]: 76%
- Mean Tumor Weight, Day8 [3, 4]: 65 mg
- Mean Tumor Weight, Day 15 [3, 4]: 146 mg
- Mean Tumor Weight, Day 22 [3, 4]: 258 mg
- Mean Tumor Weight, Day 29 [3, 4]: 445 mg
- Mean Tumor Weight, Day 36 [3, 4]: 964 mg
- S/T = No. Survivors/No.Treated [3, 4]: 5/10
- % T/C, Day8 [3, 5]: 51%
- % T/C, Day 15 [3, 5]: 36%
- % T/C, Day 22 [3, 5]: 43%
- % T/C, Day 29 [3, 5]: 67%
- % T/C, Day 36 [3, 5]: 60%
- Mean Tumor Weight, Day8 [3, 5]: 45 mg
- Mean Tumor Weight, Day 15 [3, 5]: 110 mg
- Mean Tumor Weight, Day 22 [3, 5]: 255 mg
- Mean Tumor Weight, Day 29 [3, 5]: 504 mg
- Mean Tumor Weight, Day 36 [3, 5]: 764 mg
- S/T = No. Survivors/No.Treated [3, 5]: 8/10
- % T/C, Day8 [3, 6]: 35%
- % T/C, Day 15 [3, 6]: 41%
- % T/C, Day 22 [3, 6]: 42%
- % T/C, Day 29 [3, 6]: 46%
- % T/C, Day 36 [3, 6]: 44%
- Mean Tumor Weight, Day8 [3, 6]: 31 mg
- Mean Tumor Weight, Day 15 [3, 6]: 125 mg
- Mean Tumor Weight, Day 22 [3, 6]: 251 mg
- Mean Tumor Weight, Day 29 [3, 6]: 341 mg
- Mean Tumor Weight, Day 36 [3, 6]: 559 mg
- S/T = No. Survivors/No.Treated [3, 6]: 9/10
- % T/C, Day8 [3, 7]: 70%
- % T/C, Day 15 [3, 7]: 77%
- % T/C, Day 22 [3, 7]: 76%
- % T/C, Day 29 [3, 7]: 81%
- % T/C, Day 36 [3, 7]: 74%
- Mean Tumor Weight, Day8 [3, 7]: 61 mg
- Mean Tumor Weight, Day 15 [3, 7]: 238 mg
- Mean Tumor Weight, Day 22 [3, 7]: 454 mg
- Mean Tumor Weight, Day 29 [3, 7]: 608 mg
- Mean Tumor Weight, Day 36 [3, 7]: 934 mg
- S/T = No. Survivors/No.Treated [3, 7]: 10/10
- % T/C, Day8 [3, 8]: 81%
- % T/C, Day 15 [3, 8]: 95%
- % T/C, Day 22 [3, 8]: 88%
- % T/C, Day 29 [3, 8]: 128%
- % T/C, Day 36 [3, 8]: 107%
- Mean Tumor Weight, Day8 [3, 8]: 50 mg
- Mean Tumor Weight, Day 15 [3, 8]: 138 mg
- Mean Tumor Weight, Day 22 [3, 8]: 299 mg
- Mean Tumor Weight, Day 29 [3, 8]: 641 mg
- Mean Tumor Weight, Day 36 [3, 8]: 872 mg
- S/T = No. Survivors/No.Treated [3, 8]: 9/10
- % T/C, Day8 [3, 9]: 221%
- % T/C, Day 15 [3, 9]: 150%
- % T/C, Day 22 [3, 9]: 163%
- % T/C, Day 29 [3, 9]: 167%
- % T/C, Day 36 [3, 9]: 157%
- Mean Tumor Weight, Day8 [3, 9]: 86 mg
- Mean Tumor Weight, Day 15 [3, 9]: 182 mg
- Mean Tumor Weight, Day 22 [3, 9]: 324 mg
- Mean Tumor Weight, Day 29 [3, 9]: 478 mg
- Mean Tumor Weight, Day 36 [3, 9]: 666 mg
- S/T = No. Survivors/No.Treated [3, 9]: 10/10
- IC50 (FPTase [1]): 32 to 320 nM
- IC50 (FPTase [2]): 13 to 32 nM

- melting point: 128 to 130 °C
Structure (SMILES): COC(=O)c1ccc(C#CCCCC2(S(=O)(=O)c3ccc(OC)cc3)SC(=O)NC2=O)c(C)c1 (stereo not drawn) [Example 160, 4-{5-[5-(4-Methoxybenzenesulfonyl)-2,4-dioxothiazolidin-5-yl]pent-1-ynyl}-3-methylbenzoic Acid Methyl Ester]

- melting point: 206 to 207 °C
- IC50 (FPTase [2]): 900 nM
Structure (SMILES): COc1ccc(S(=O)(=O)C2(CCCC#Cc3ccc(-n4cccc4)cc3)SC(=O)NC2=O)cc1 (stereo not drawn) [Example 161, 5-(4-Methoxybenzenesulfonyl)-5-[5-(4-pyrrol-1-yl-phenyl)pent-4-ynyl]-thiazolidine-2,4-dione]

- melting point: 204 to 206 °C
- IC50 (FPTase [2]): 1300 nM
Structure (SMILES): O=C1NC(=O)C(CCCC#Cc2ccc(-n3cccc3)cc2)(S(=O)(=O)c2ccc(OC(F)(F)F)cc2)S1 (stereo not drawn) [Example 163, 5-[5-(4-Pyrrol-1-ylphenyl)pent-4-ynyl]-5-(4-trifluoromethoxybenzenesulfonyl)-thiazolidine-2,4-dione]

Structure (SMILES): COc1ccc(S(=O)(=O)C2(CCCC#Cc3cc(NC(=O)OCC(C)C)ccc3C)SC(=O)N(C(=O)OCC(C)C)C2=O)cc1 (stereo not drawn) [Example 232, Isobutyl 5-(5-{5-[(isobutoxycarbonyl)-amino]-2-methylphenyl}pent-4-ynyl)-5-[(4-methoxyphenyl)sulfonyl]-2,4-dioxo-1,3-thiazolidine-3-carboxylate]
- IC50 (FPTase [1]): 40 to 640 nM
- IC50 (FPTase [2]): 5 to 10 nM

Structure (SMILES): CC[C@]1(O)C[C@H]2CN(CCc3c([nH]c4ccccc34)[C@@](C(=O)OC)(c3cc4c(cc3OC)N(C=O)[C@H]3[C@@](O)(C(=O)OC)[C@H](OC(C)=O)[C@]5(CC)C=CCN6CC[C@]43[C@@H]65)C2)C1 [Vincristine, reference compound]
- % T/C, Day8 [3, 10]: 16%
- % T/C, Day 15 [3, 10]: 8%
- % T/C, Day 22 [3, 10]: 14%
- % T/C, Day 29 [3, 10]: 19%
- % T/C, Day 36 [3, 10]: 15%
- Mean Tumor Weight, Day8 [3, 10]: 14 mg
- Mean Tumor Weight, Day 15 [3, 10]: 24 mg
- Mean Tumor Weight, Day 22 [3, 10]: 84 mg
- Mean Tumor Weight, Day 29 [3, 10]: 139 mg
- Mean Tumor Weight, Day 36 [3, 10]: 194 mg

From patent US6605628B1, “Method of using 5-(arysulfonyl)-, 5-(arylsulfanyl)-and 5-(arylsulfanyl)thiazolidine-2,4-diones for inhibition of farnesyl-protein transferase” (Wyeth Holdings Corporation, priority 2001, dated 2003)
